For 68 compounds, cytotoxicity results are on record in ChEMBL document CHEMBL3507680, “University of Dundee, Gates Library screen for HepG2 cell viability”.

The data set is described as follows: Human HepG2 cell viability assay in 384 well format. The data set is classed as toxicity, cell-based. Also on record: dose 125 nL, time 70.5 hour; cytotoxicity at 70.5 h: concentration not given beside the values. The conditions noted are these: HepG2 cells, read-out: Inhibition.
With `Cc1nn(C)c(C)c1-c1ccnc(N(C)Cc2nc(C(C)C)no2)n1`, the cytotoxicity at 70.5 h came to 3.94%.

`CNc1nc(N2CCN(C3CCCCC3)C(CCO)C2)nc2c1CCC2` (stereo not drawn): the cytotoxicity at 70.5 h is -3.63%. The value for `CCN(Cc1ccncc1)c1nc(C)nc2oc(C)nc12` was -5.52%. For `CCc1n[nH]c(C(=O)N2CCN(c3ccc4ccccc4c3)CC2)c1C`, the cytotoxicity at 70.5 h was -6.66%. On to `CCc1[nH]c2c(CNc3cncc(C(=O)N(C)C)n3)cc(F)cc2c1C`, for which the cytotoxicity at 70.5 h was determined as 4.01%. On to `COc1ccc(Cc2ncc3c(n2)CN(C(=O)C2COCCO2)C3)cc1` (stereo not drawn), for which the cytotoxicity at 70.5 h was -3.32%. Take `CC(C)=CCN1C[C@H]2CC[C@@H]1CN(S(=O)(=O)c1cccnc1)C2`: the cytotoxicity at 70.5 h came to 6.15%. Take `CCn1ccnc1CN(C)c1cc(C2CC2)ncn1`: the cytotoxicity at 70.5 h is -5.12%. With `N[C@H]1CN(C(=O)c2ccccc2Oc2ccccc2)C[C@@H]1C1CC1`, the cytotoxicity at 70.5 h was -9.43%. The value for `CCN1CCC(CC(=O)NCCc2nc(C)c(Cl)s2)CC1` was -6.45%.

In the case of `CCN(CC)C(=O)C1CCCN(CC(=O)Nc2c(C)nn(CC)c2C)C1` (stereo not drawn), the cytotoxicity at 70.5 h was 22.3%. For the compound `CCCNc1ncc(CN2CCC3(CCNC(=O)CC3)CC2)cn1`, the cytotoxicity at 70.5 h was -3.92%.

For `Cc1ccccc1CN(CCN(C)C)C(=O)c1ccc2nccn2c1`, the cytotoxicity at 70.5 h was determined as 0.498%. As for `O=C(c1coc(COc2ccccc2F)n1)N1CCC[C@H]1CO`, the cytotoxicity at 70.5 h is -2.42%. With `CCc1ncc(C(=O)N(C)CC2Cc3ccccc3O2)cn1` (stereo not drawn), the cytotoxicity at 70.5 h is 25.4%.

In the case of `CC(C)c1cc(C(=O)N2CCN(c3ccncc3)CC2)n(C)n1`, the cytotoxicity at 70.5 h is -11.9%. As to `CC(C)n1cnnc1CN(C)CC1CCCNC1` (stereo not drawn), the cytotoxicity at 70.5 h is -5.56%.

For the compound `CN1C(=O)[C@H]2CC[C@@H]1CN(C(=O)c1sccc1S(N)(=O)=O)C2`, the cytotoxicity at 70.5 h is -4.92%.

In the case of `CC(C)CCC(=O)N1CCC(c2nnc(CN(C)CCO)n2C)CC1`, the cytotoxicity at 70.5 h is -2.45%. As to `Cc1c(NC(=O)NC2CN3CCC2CC3)cccc1C(=O)N1CCCC1` (stereo not drawn), the cytotoxicity at 70.5 h worked out at 37.5%. `CCOc1ccccc1OCCN(C)Cc1ncnn1CC`: the cytotoxicity at 70.5 h is -6.09%. In the case of `Cc1cc(N2CCCC(O)(CN(C)C)CC2)nc(-c2ccccc2)n1` (stereo not drawn), the cytotoxicity at 70.5 h was -4.65%. As for `CCc1cc(CN2C[C@H]3CC[C@@H]2CN(C2Cc4ccccc4C2)C3)on1`, the cytotoxicity at 70.5 h is -2.96%. Consider `O=C(NCc1cc2n(n1)CCCNC2)c1cn2cc(Cl)ccc2n1`, for which the cytotoxicity at 70.5 h is -2.1%. Regarding `CSCCCN1CCn2nc(CNC(=O)N(C)C)cc2C1`, the cytotoxicity at 70.5 h is 0.863%.

Take `CCOCCn1c(=O)[nH]c2cc(C(=O)N(C)Cc3ccno3)ccc21`: the cytotoxicity at 70.5 h is -1.24%. Turning to `O=C(O)[C@@H]1CN(C(=O)CC2CCCC2)C[C@H]1c1ccc(F)cc1`, the cytotoxicity at 70.5 h is -6.35%. For `O=C(c1ccc2ccccc2c1)C1CCCN(C(=O)Cn2cncn2)C1` (stereo not drawn), the cytotoxicity at 70.5 h is -1.71%. With `O=C(c1cccnc1)N1CCC(Oc2cccc(C(F)(F)F)c2)CC1`, the cytotoxicity at 70.5 h was -4.72%. Regarding `NCc1n[nH]c(=O)n1-c1cccc(Cl)c1Cl`, the cytotoxicity at 70.5 h is -3.71%.

In the case of `CCC(CO)N(Cc1cccnc1)C(=O)c1ccc(C(F)(F)F)nc1O` (stereo not drawn), the cytotoxicity at 70.5 h is -18.7%.

Turning to `CCCn1cc(-c2cc(-c3ccoc3)c(C#N)c(N)n2)c(C)n1`, the cytotoxicity at 70.5 h came to 5.86%. As for `CN1[C@H]2CC[C@@H]1CN(C(=O)c1nnc3n1CCCCC3)CC2`, the figure is -9.52%; as for `CCCc1nc(C)c(CNc2nc(C)nc3onc(C)c23)s1`, 2.81%; as for `CNc1nc(C)c(C(=O)N2CCC(C(O)Cc3ccccc3)CC2)s1` (stereo not drawn), -11.8%.

Regarding `CCN1CCc2[nH]cnc2C12CCN(C(=O)CCCn1cncn1)CC2`, the cytotoxicity at 70.5 h was -1.47%. Regarding `CSc1ccccc1C(=O)N(C)Cc1nncn1C(C)C`, the cytotoxicity at 70.5 h was -0.541%. Regarding `CC(=O)c1ccccc1-c1nc(CC2CCN(C)CC2)no1`, the cytotoxicity at 70.5 h came to 16.1%.

`COc1ccc(CN2CCCC(Nc3cccc(F)c3)C2)cc1O` (stereo not drawn): the cytotoxicity at 70.5 h is -2.89%. With `O[C@H]1[C@H](n2cc(-c3cccnc3)nn2)c2ccccc2C12CCNCC2`, the cytotoxicity at 70.5 h is 0.63%.

On to `Cc1cc(CN2CCC(CNC(=O)c3ccc(O)c(Cl)c3)C2)[nH]n1` (stereo not drawn), for which the cytotoxicity at 70.5 h is -4.96%. As to `CC(=O)N1CCc2c(nc(-c3ccccn3)nc2N(C)CC(O)CO)C1` (stereo not drawn), the cytotoxicity at 70.5 h was -9.73%. Turning to `COc1ccccc1CN1C(=O)O[C@@H]2CN(c3nccs3)C[C@@H]21`, the cytotoxicity at 70.5 h worked out at 1.12%. Turning to `CCn1cc(CN(C)C(=O)c2cccc(CCC(C)(C)O)c2)cn1`, the cytotoxicity at 70.5 h was -3.4%. Consider `CCc1cc(NC2CCN(S(C)(=O)=O)CC2)n2nc(C)c(C)c2n1`, for which the cytotoxicity at 70.5 h was -1.04%. On to `CN1C(=O)C(c2ccccc2)CC12CCN(CCOCCO)CC2` (stereo not drawn), for which the cytotoxicity at 70.5 h was 3.55%. Turning to `COc1cccc(-c2noc(-c3ccc(NCC4CC4)nc3)n2)c1OC`, the cytotoxicity at 70.5 h was -2.04%. For the compound `CN(C)C(=O)c1ccc2c(c1)N(C)C(CC(=O)NCc1ccno1)CO2` (stereo not drawn), the cytotoxicity at 70.5 h is -4.48%. For the compound `CC(=O)N1CCc2c(nc(-c3ccncc3)nc2N(C)CC(O)CO)C1` (stereo not drawn), the cytotoxicity at 70.5 h was -9.59%. Regarding `CN(C)c1ccccc1C(=O)N1C[C@@H](CN2CCOCC2)[C@@H](CO)C1`, the cytotoxicity at 70.5 h was -3.02%.

Consider `O=C(Cc1cccnc1)N1CCC(OCc2ccccc2)CC1`, for which the cytotoxicity at 70.5 h is -11.4%.

Take `Cc1ccc(CN2CCN(CC3CC3)[C@@H]3CS(=O)(=O)C[C@@H]32)cc1C`: the cytotoxicity at 70.5 h is -6.12%.

Take `Cn1cc(CCC(=O)N2C[C@H]3CC[C@@H]2CN(Cc2ccccc2)C3)cn1`: the cytotoxicity at 70.5 h is -5.6%. The value for `Cc1cc(CC(=O)N2CCN(CC3CC3)[C@@H]3CS(=O)(=O)C[C@@H]32)ccc1F` was 4.69%; that for `Cc1ccc(C(=O)N2Cc3ccccc3C2)cc1N1CCNC1=O` was -6.89%. Regarding `O=c1cc(CN2CCCC(CCc3c(F)cccc3F)C2)[nH]c(=O)[nH]1` (stereo not drawn), the cytotoxicity at 70.5 h is -8.15%. As to `O=C1[C@H]2CC[C@H](CN(Cc3ccccc3OC(F)F)C2)N1CC1CC1`, the cytotoxicity at 70.5 h is -7.82%.

Regarding `COc1cccc(CCC2CCCN(C(=O)C3=NN(C)C(=O)CC3)C2)c1` (stereo not drawn), the cytotoxicity at 70.5 h is -5.36%. Take `CN(C)c1ccc(CCNC(=O)C2CCC(=O)N(C3CCCC3)C2)cc1` (stereo not drawn): the cytotoxicity at 70.5 h is -8%.

`O=C(c1ccc[nH]1)N1CCC2(CC1)C(=O)Nc1ccccc12`: the cytotoxicity at 70.5 h was -14.9%. Regarding `COc1cccc(CC2CN(C3CCN(C(C)=O)CC3)CCO2)c1` (stereo not drawn), the cytotoxicity at 70.5 h is -5.79%. With `CCCc1n[nH]cc1C(=O)N1CCC(c2nccn2CCOC)CC1`, the cytotoxicity at 70.5 h is 19%.

For the compound `CCS(=O)(=O)N1CCC(c2nnc(CN3CCOCC3)n2C)CC1`, the cytotoxicity at 70.5 h was -2.17%. On to `Cc1nccnc1CN1CCC2(CCCN(C3CCOCC3)C2=O)C1` (stereo not drawn), for which the cytotoxicity at 70.5 h is -2.69%. Turning to `CN(C)CCN(C)C(=O)c1cnc2c(c1)nc(-c1ccccc1Cl)n2C`, the cytotoxicity at 70.5 h was -5.91%.

Turning to `Cc1cc(=O)[nH]c(CCNC(=O)C(c2ccc(F)cc2)N(C)C)n1` (stereo not drawn), the cytotoxicity at 70.5 h was determined as 4.61%. `CCCc1cc(C(=O)N2CCCC2c2cccnc2)[nH]n1` (stereo not drawn): the cytotoxicity at 70.5 h is -5.97%. Turning to `CN1C(=O)CC(C(=O)O)C12CCN(Cc1ccc(F)cc1Cl)CC2` (stereo not drawn), the cytotoxicity at 70.5 h was -9.57%.
